Test results taken from patent US20250214969A1, “PROTEIN DEGRADERS AND USES THEREOF” (Kymera Therapeutics, Inc., priority 2022, published 2025).

Key:
[1] = target: T1, truncated His-MBP-Tev-KLHDC2 (residues 1-363) (Homo sapiens, UniProt Q9Y2U9); assay: KLHDC2 HTRF binding assay; conditions: 1 nM KLHDC2 (residues 1-363), fluorescein-labeled diglycine peptide probe
T1 construct: truncated His -MBP-Tev-KLHDC2 (residues 1-363) purified from E. coli; made in house; host or cells: E. coli
T1 sequence (Q9Y2U9 1-363): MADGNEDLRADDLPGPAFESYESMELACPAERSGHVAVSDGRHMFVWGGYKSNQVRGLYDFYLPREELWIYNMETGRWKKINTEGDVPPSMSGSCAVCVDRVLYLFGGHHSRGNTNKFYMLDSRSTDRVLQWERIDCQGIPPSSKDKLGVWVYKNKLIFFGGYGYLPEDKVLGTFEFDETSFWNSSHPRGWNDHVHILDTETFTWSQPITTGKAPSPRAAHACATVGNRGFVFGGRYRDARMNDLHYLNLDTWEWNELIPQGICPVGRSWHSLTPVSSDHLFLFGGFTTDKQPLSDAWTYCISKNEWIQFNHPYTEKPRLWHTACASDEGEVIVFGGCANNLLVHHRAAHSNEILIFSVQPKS

[2] = target: T1, truncated His-MBP-Tev-KLHDC2 (residues 1-363); assay: KLHDC2 FP competition binding assay; conditions: 15 nM KLHDC2 (residues 1-363), 10 nM fluorescein-labeled diglycine peptide probe, read-out: KLHDC2 binding Human FP: average external IC50

SMILES	IC50 [1] [µM]	IC50 [2] [µM]
Cc1sc2c(c1C)C(c1ccc(Cl)cc1)=N[C@@H](CC(=O)NCCCCCCc1cncc(-c3cccc(C(=O)Nc4ccc(=O)n(CC(=O)O)c4)c3)c1)c1nnc(C)n1-2 [I-477]	< 0.05	< 0.05
Cc1sc2c(c1C)C(c1ccc(Cl)cc1)=N[C@@H](CC(=O)NCCCCCCc1cc(C(=O)Nc3ccc(=O)n(CC(=O)O)c3)cc(-c3cccnc3)c1)c1nnc(C)n1-2 [I-476]	0.05 to 0.5	< 0.05
O=C(O)Cn1cc(NC(=O)COc2ccccn2)ccc1=O [I-264]	> 5	> 5
CC(C)Cc1cccc(-c2ccc(=O)n(CC(=O)O)c2)c1 [I-344]	> 5	> 5
O=C(O)Cn1cc(-c2cccc3ccccc23)ccc1=O [I-409]	> 5	> 5
CN(C(=O)Cc1ccc(=O)n(CC(=O)O)c1)c1ccccc1 [I-272]	> 5	> 5
NCCCCCCCCCc1cccc2c(-c3cccc(C(=O)Nc4ccc(=O)n(CC(=O)O)c4)c3)cncc12 [I-109]	0.05 to 0.5	> 5
O=C(O)CCC(=O)NCc1nc2ccccc2s1 [I-225]	> 5	> 5
O=C(O)C1CCOc2ccc(Cl)cc21 (centres unmarked) [I-215]	> 5	> 5
COc1cc(-c2cncs2)ccc1C(=O)Nc1ccc(=O)n(CC(=O)O)c1 [I-154]	0.5 to 5	> 5
Cn1cc(NC(=O)c2cccc(-c3cccnc3)c2)cc(C(=O)O)c1=O [I-31]	> 5	> 5
O=C(O)Cn1cc(Nc2ncc(-c3cccnc3)c3ccccc23)ccc1=O [I-56]	0.5 to 5	> 5
C[C@@H](C(=O)O)n1cc(NC(=O)c2cccc(-c3cccnc3)c2)ccc1=O [I-71]	> 5	> 5
Cc1ccccc1OCC(=O)Nc1ccc(=O)n(CC(=O)O)c1 [I-266]	> 5	> 5
CCCc1ccc(C)c(-c2ccc(=O)n(CC(=O)O)c2)c1 [I-349]	> 5	> 5
Cc1cc(=O)n(CC(=O)O)cc1NC(=O)c1ccccc1 [I-316]	> 5	> 5
Cc1ccc2cc(C(=O)Nc3ccc(=O)n(CC(=O)O)c3)cnc2c1 [I-189]	> 5	> 5
CCc1ccc(C(=O)Nc2ccc(=O)n(CC(=O)O)c2)cc1-c1cccnc1 [I-181]	0.5 to 5	> 5
O=C(O)C1CC(=O)N(C2CC2)C1 (centres unmarked) [I-216]	> 5	> 5
Cc1cc(-c2ccc(=O)n(CC(=O)O)c2)c(C)cc1F [I-348]	> 5	> 5

SMILES	IC50 [1] [µM]	IC50 [2] [µM]
CC(C)=Cc1cccc(-c2ccc(=O)n(CC(=O)O)c2)c1 [I-331]	> 5	> 5
COc1cc(-c2ccc(CCCCCCCCCNC(=O)C[C@@H]3N=C(c4ccc(Cl)cc4)c4c(sc(C)c4C)-n4c(C)nnc43)cc2)ccc1C(=O)Nc1ccc(=O)n(CC(=O)O)c1 [I-470]	0.5 to 5	0.05 to 0.5
CCOC(=O)Cn1cc(NC(=O)c2cc(CCCCCCN)cc(-c3cccnc3)c2)ccc1=O [I-157]	> 5	> 5
CC(C(=O)O)N1CCCCC1=O (centres unmarked) [I-232]	> 5	> 5
O=C(O)Cn1cc(-c2cc(F)c(O)c(F)c2)ccc1=O [I-389]	> 5	> 5
CNC(=O)c1cccc(-c2cccc(C(=O)Nc3ccc(=O)n(CC(=O)O)c3)c2)c1 [I-195]	> 5	> 5
O=C(O)Cn1cc(NC(=O)Cc2ccccc2)ccc1=O [I-377]	> 5	> 5
O=C(O)Cn1cc(NC(=O)c2ccccc2C(F)F)ccc1=O [I-321]	> 5	> 5
CCc1cc(=O)n(CC(=O)O)cc1NC(=O)c1cccc(-c2cccnc2)c1 [I-54]	0.05 to 0.5	0.5 to 5
CC(C)c1ccc(S(=O)(=O)NCCC(=O)Nc2ccc(=O)n(CC(=O)O)c2)cc1 [I-180]	> 5	> 5
CCc1cncc(N2CCC[C@H](C(=O)Nc3ccc(F)c(CC(=O)O)c3)C2)c1 [I-23]	< 0.05	0.05 to 0.5
C[C@@]1(C(=O)Nc2ccc(=O)n(CC(=O)O)c2)CCCN(c2cccnc2)C1 [I-66]	0.5 to 5	> 5
CCc1ccc(C(=O)CCC(=O)Nc2ccc(=O)n(CC(=O)O)c2)cc1 [I-253]	> 5	> 5
O=C(O)Cn1cc(NC(=O)COc2cccc3cnccc23)ccc1=O [I-251]	> 5	> 5
CCc1cc(=O)n(CC(=O)O)cc1NC(=O)[C@H]1CCCN(c2cccnc2)C1 [I-50, 2-[4-ethyl-2-oxo-5-[(3S)-1-(3-pyridyl)piperidine-3-carbonyl|amino]-1-pyridyl]acetic acid]	0.05 to 0.5	0.5 to 5
CC1CC(C(=O)Nc2ccc(=O)n(CC(=O)O)c2)CN(c2cccnc2)C1 (centres unmarked) [I-53]	0.05 to 0.5	0.5 to 5
O=C(O)Cn1cc(NC(=O)COc2ccc(Cl)cc2)ccc1=O [I-278]	> 5	> 5
O=C(O)Cc1cc(NC(=O)[C@H]2CCCN(c3cncc4ccccc34)C2)ccc1Cl [I-7]	< 0.05	0.05 to 0.5
CNc1cncc(N2CCC[C@H](C(=O)Nc3ccc(Cl)c(CC(=O)O)c3)C2)c1 [I-18]	0.05 to 0.5	0.5 to 5
O=C(O)Cn1cc(NC(=O)c2ccc(-c3cccnc3)cc2)ccc1=O [I-198]	0.5 to 5	> 5

Further lines, results first:

IC50 [1] [µM]	IC50 [2] [µM]	SMILES
> 5	> 5	Cc1cc(O)ccc1-c1ccc(=O)n(CC(=O)O)c1 [I-346]
> 5	> 5	COc1cc(C)c(-c2ccc(=O)n(CC(=O)O)c2)cc1C [I-359]
0.5 to 5	> 5	O=C(O)Cn1cc(NC(=O)c2cccc(-c3ccc(F)cc3)c2)ccc1=O [I-276]
0.5 to 5	0.5 to 5	NCCCCCCc1cc(C(=O)Nc2ccc(=O)n(CC(=O)O)c2)cc(-c2cccnc2)c1 [I-166]
> 5	> 5	Cc1ccc(C#N)c(-c2ccc(=O)n(CC(=O)O)c2)c1 [I-364]
> 5	> 5	O=C(O)Cn1cc(-c2ccccc2O)ccc1=O [I-406]
> 5	> 5	O=C(O)Cn1cc(NC(=O)[C@H]2CCCN(c3cccnc3)C2)c(C2CC2)cc1=O [I-57]
< 0.05	0.05 to 0.5	COc1cccc2c(N3CCC[C@H](C(=O)Nc4ccc(F)c(CC(=O)O)c4)C3)cncc12 [I-6]
0.5 to 5	> 5	Cc1ccc(-c2cccc(C(=O)Nc3ccc(=O)n(CC(=O)O)c3)c2)cc1 [I-275]
> 5	> 5	Cc1cccc(C)c1-c1ccc(=O)n(CC(=O)O)c1 [I-404]
> 5	> 5	O=C(O)C1CC(=O)N(CCOc2ccccc2Cl)C1 (centres unmarked) [I-228]
0.5 to 5	> 5	O=C(O)Cn1cc(NC(=O)c2nccc3c(Cl)cccc23)ccc1=O [I-248]
> 5	> 5	COc1cc(C(=O)Nc2ccc(=O)n(CC(=O)O)c2)cc(-c2ccccc2)c1 [I-262]
> 5	> 5	CCN1C(=O)CCC(C(=O)O)C1c1cnn(C)c1 (centres unmarked) [I-217]
> 5	> 5	CN(C)C(=O)c1ccc(-c2ccc(=O)n(CC(=O)O)c2)c(F)c1 [I-383]
0.5 to 5	> 5	Nc1ccc2cc(C(=O)Nc3ccc(=O)n(CC(=O)O)c3)ccc2c1 [I-151]
> 5	> 5	O=C(O)Cn1cc(NC(=O)COc2ccc(Oc3ccccc3)cc2)ccc1=O [I-244]
0.5 to 5	> 5	Cc1ccc(C(=O)Nc2ccc(=O)n(CC(=O)O)c2)cc1-c1ccccc1 [I-269]
> 5	> 5	O=C(O)Cn1cc(NC(=O)c2ccccc2)ccc1=O [I-382]
0.05 to 0.5	0.5 to 5	COc1cc(-c2ccc(Cl)cc2)ccc1C(=O)Nc1ccc(=O)n(CC(=O)O)c1 [I-134]
> 5	> 5	O=C(O)Cn1cc(/C=C/c2ccccc2)ccc1=O [I-326]
0.05 to 0.5	0.5 to 5	N#Cc1cc(=O)n(CC(=O)O)cc1NC(=O)c1cccc(-c2cccnc2)c1 [I-25]
0.5 to 5	> 5	O=C(O)Cn1cc(NC(=O)[C@@H]2CCCN(c3cccnc3)C2)c(C(F)(F)F)cc1=O [I-63]
0.5 to 5	> 5	O=C(O)Cn1cc(NC(=O)c2cccc(-c3cccc(Cl)c3)c2)ccc1=O [I-293]
> 5	> 5	Cc1cccc(-c2cccn(CC(=O)O)c2=O)c1 [I-391]
> 5	> 5	O=C(O)Cn1cc(NC(=O)CC2Cc3ccc(Cl)cc3C2=O)ccc1=O (centres unmarked) [I-235]
> 5	> 5	O=C(O)Cc1cc(NC(=O)[C@@H]2CCCN(c3cccnc3)C2)ccc1F [I-27]
> 5	> 5	O=C(O)Cn1cc(-c2cccc(CN3CCOCC3)c2)ccc1=O [I-304]
> 5	> 5	COc1cccc(OCC(=O)Nc2ccc(=O)n(CC(=O)O)c2)c1 [I-261]
> 5	> 5	O=C(O)Cn1cc(NC(=O)COc2ccc(C(F)(F)F)cc2)ccc1=O [I-256]
